Reference: patent US11826325B2, “Use of Belinostat or pharmaceutically acceptable salt thereof in preparation of drug for treating infection” (priority 2021, dated 2023)

Legend:
[1] = biological target: T1, HU protein (Bacillus subtilis, UniProt P08821); assay: Nuclear magnetism Titration (HSQC) binding experiment; settings: 10 μM HU protein, 1 μL of 100 mM Belinostat stock added
Source text: (§1) At the molecular level, a binding effect of Belinostat with the HU protein was verified by nuclear magnetism Titration and waterLOGSY experiments. The isoleucine (Ile) at the 71^St site in the HU protein was mutated into alanine (Ala) to obtain a corresponding mutant (hereinafter referred to as “HU^171A protein”), then the waterLOGSY experiment was repeated, and the binding effect of the drug and the mutated HU^171A protein disappeared, proving that a key binding site of the two was the amino acid at the 71st site in the HU protein. Specific experimental steps and experimental results are as follows:
An appropriate amount of Belinostat (MedChemExpress Company) was weighed and dissolved in DMSO-d6 (Solarbio Science & Technology Co., Ltd.) to obtain a stock solution of Belinostat with a concentration of 100 mM for use. 480 μl of solution containing 10 μM of HU protein was taken, 20 μL of D2O was added and mixed evenly, the obtained solution was transferred into a nuclear magnetic resonance tube, and an HSQC spectrogram of the HU protein was recorded on a Brooke 600 MHz nuclear magnetic resonance spectrometer (Avance III). 1 μL of Belinostat stock solution was taken, added into the foregoing nuclear magnetic resonance tube and mixed evenly, and then an HSQC spectrogram was recorded again.

[2] = biological target: HU^171A protein (Bacillus subtilis, UniProt P08821, I71A); assay: waterLOGSY 1D NMR binding experiment, mutated HU protein; settings: 10 μM protein, pH 6.5 buffer
HU^171A protein, sequence (P08821 whole entry I71A): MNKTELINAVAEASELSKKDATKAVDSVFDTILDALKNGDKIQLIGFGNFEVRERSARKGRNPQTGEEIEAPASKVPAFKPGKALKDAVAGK
Source text: as §1
(§2) 1 μL of the foregoing Belinostat stock solution was taken, 479 μL of buffer solution (300 mM of NaCl and 50 mM of K2HPO4, with the pH of 6.5) and 20 μL of D2O were added and mixed evenly, and then the obtained solution was transferred to the nuclear magnetic resonance tube for use. In addition, two parts of 1 μL of the foregoing Belinostat stock solution were taken, an appropriate amount of HU protein and HU^171A protein were added respectively, then an appropriate amount of buffer solution and 20 μL of D2O were added respectively, so that the total volume of the solution was 500 μL, and the final protein concentration was 10 μm. After uniform mixing, the obtained solutions were transferred to nuclear magnetic resonance tubes for use. […]

[3] = biological target: T1, HU protein; assay: waterLOGSY 1D NMR binding experiment, HU protein; settings: 10 μM protein, pH 6.5 buffer
Source text: as §1, §2

[4] = Mouse superficial skin injury infection model, wound healing; format: in vivo, BALB/c mice; settings: mice, low-concentration group 0.1 μM vs high-concentration group 100 μM and fusidic acid group
Description: (§3) Medical tape; 3% chloral hydrate; normal saline; 0.1 μM Belinostat and 100 μM Belinostat (with solvents being 10% glycerin); a commercially available fusidic acid ointment (2% drug content); an LB plate; an independent air supply cage for mice; surgical scissors; tweezers; and a hair removal device.
(§4) 20 female BALB/c mice aged 6-8 weeks were kept in the independent air supply cage.
Back skin of 6-8 week-old female BALB/c mice was depilated with a depilatory paste before modeling, and an exposed skin region with a size of about 1 cm^2 was formed. On the day of modeling, the mice were anesthetized by intraperitoneal injection of 3% chloral hydrate at 10 mL/kg. A same operator pasted the medical adhesive tape to the depilated skin of the mice with basically a same strength, and then tore the medical adhesive tape off. […]
The mice were randomly divided into four groups, which were a blank control (control) group, a low-concentration X group (low-concentration group, with a specific concentration of 0.1 μM), a high-concentration X group (high-concentration group, with a specific concentration of 100 μM), and a fusidic acid group (fusidic acid group, that is, a positive control group), with five mice in each group. All the mice of the blank control group were killed the day before the start of treatment to quantify an amount of bacterial inoculation. […]

[5] = tested on: Bacillus subtilis; assay: DAPI staining of Bacillus subtilis; format: cell-based; settings: 500 μM, 4 hours
Description: (§5) Before the experiment, an appropriate amount of Belinostat was weighed and dissolved in DMSO to obtain a mother liquid with a concentration of 100 mM. The mother liquid was diluted with an LB medium for use. Bacillus subtilis used in this embodiment was ATCC 23857 strain, and Staphylococcus aureus was methicillin-resistant Staphylococcus aureus ATCC BAA-1761 strain.
(§6) The experiments were performed in EP tubes, and one drug treated group and one blank control group were set. A bacterial solution of Bacillus subtilis cultured in an LB medium was diluted to 5×10^5 CFU/mL with the LB medium, 100 μL of diluted bacterial solution was taken and added to a 1.5 mL EP tube, and then 100 μL of Belinostat solution diluted with the LB medium was added, so that the final drug concentration was 500 μM. DMSO and the LB medium were added to the blank control group, so that the final concentration of the DMSO was 0.5% and a volume of a reaction system was consistent with that of the drug treated group. Three replicate tube were set in each group, and shaking culture was performed at 37° C. for 4 hours. […]

[6] = tested on: Bacillus subtilis (ATCC 23857 strain); assay: Growth curve of Bacillus subtilis (OD600); format: cell-based; settings: 24 hours
Description: as §5
The experiment was performed on a 96-well plate, four groups of drug treated groups and one blank control group (that is, the Control group) were set, and each group had three repeat wells. A bacterial solution of Bacillus subtilis (ATCC 23857 strain) cultured in an LB medium was diluted to 5×10^5 CFU/mL with an LB medium, 15 wells were selected in the middle of the 96-well plate, 100 μL of diluted bacterial solution was added to each well, and then 100 μL of Belinostat solution diluted with the LB medium was added, so that the final drug concentrations in the four drug treated groups were 100 μM, 200 μM, 400 μM, and 500 μM, respectively. DMSO and the LB medium were added to the blank control group, so that the final concentration of the DMSO was 0.5% and a volume of a reaction system was consistent with that of each drug treated group. Shaking culture was performed at 37° C. for 24 hours.
Absorbance at 600 nm was used as an index of a bacterial concentration in the culture solution for determining once every 3 hours. Finally, with OD600 as a vertical coordinate and time as a horizontal coordinate, a bacterial growth curve was drawn.

[7] = tested on: Staphylococcus aureus (ATCC BAA-1761 strain); assay: DAPI staining of Staphylococcus aureus; format: cell-based; settings: 500 μM, 4 hours, methicillin-resistant strain
Description: as §5, §6

[8] = tested on: Staphylococcus aureus; assay: Transmission electron microscope observation of Staphylococcus aureus; format: cell-based; settings: 500 μM, 4 hours
Description: as §5
(§7) A bacterial solution of Bacillus subtilis cultured in an LB medium was diluted to 5×10^5 CFU/mL with the LB medium, 2.5 mL of diluted bacterial solution was taken and added to a 15 mL centrifuge tube, and then 2.5 mL of Belinostat solution diluted with the LB medium was added, so that the final drug concentration was 500 μM. 25 μL of DMSO and an appropriate amount of LB medium were added to the blank control group (the Control group) to ensure that a volume of a reaction system was consistent with that of the drug treated group (the Treated group). Three replicate tubes were set in each group. Shaking culture was performed at 37° C. for 4 hours, and bacteria were collected by centrifugation. […]

[9] = tested on: Staphylococcus aureus (ATCC BAA-1761 strain); assay: Mouse superficial skin injury infection model, viable bacterial count on infected wound; format: in vivo; settings: mice; for bacterial count in skin lesion site compared with blank control group: topical twice a day for 3 days, p.value=0.0006
Description: as §3, §4
Preparation of a bacterial solution: Staphylococcus aureus (ATCC BAA-1761 strain), preserved by the Laboratory Department of the First Affiliated Hospital of Xi′an Jiaotong University. Before the experiment, Staphylococcus aureus was inoculated in 5 mL of LB and placed in an incubator at 37° C. for shaking culture, and when the amount of bacteria was about 10^7 CFU/mL, the bacteria were taken out for use.
Back skin of 6-8 week-old female BALB/c mice was depilated with a depilatory paste before modeling, and an exposed skin region with a size of about 1 cm^2 was formed. On the day of modeling, the mice were anesthetized by intraperitoneal injection of 3% chloral hydrate at 10 mL/kg. A same operator pasted the medical adhesive tape to the depilated skin of the mice with basically a same strength, and then tore the medical adhesive tape off. The foregoing paste-tear operation was repeated many times to remove stratum corneum, and the adhesive tape needed to be replaced during each paste-tear process. When the skin of the mice became red and shiny, but there was no regular bleeding, the paste was stopped. The foregoing 10 μL of bacterial suspension was evenly applied to the damaged skin of the mice, and the infection lasted for 24 hours to establish the model of superficial skin injury of the mice.
The mice were randomly divided into four groups, which were a blank control (control) group, a low-concentration X group (low-concentration group, with a specific concentration of 0.1 μM), a high-concentration X group (high-concentration group, with a specific concentration of 100 μM), and a fusidic acid group (fusidic acid group, that is, a positive control group), with five mice in each group. All the mice of the blank control group were killed the day before the start of treatment to quantify an amount of bacterial inoculation. The three drug groups were administered twice a day (8:00 am. and 8:00 p.m. respectively) for three consecutive days after the infection. Dosages of the low-concentration X group and the high-concentration X group were 50 μL/time for each mouse, and a dosage of the fusidic acid group was 0.1 g/time for each mouse. […] After the experiment, the mice were killed.
After the mice were killed, a wound of about 1 cm^2 was excised immediately, and put into a tissue homogenizing tube with 1 mL of normal saline and magnetic beads for tissue homogenization. 100 μL of tissue homogenate was diluted with normal saline for 10^1, 10^2, 10^3, and 10^4 times gradient, and then 100 μL of each diluted solution was evenly spread on an LB plate. After inverted overnight culture for 12-24 hours, colonies were counted and the count was converted into bacterial content (CFU/cm^2) per square centimeter of tissue.

[10] = tested on: Bacillus subtilis; assay: Transmission electron microscope observation of Bacillus subtilis; format: cell-based; settings: 500 μM, 4 hours
Description: as §5, §7

T1 sequence (P08821 whole entry): as the sequence (P08821 whole entry I71A) above, with A71I counted along it

Row | Compound | binding to HU protein (peak migration and peak intensity change in HSQC spectrum) [1] | binding to mutated HU^171A protein (waterLOGSY) [2] | binding to HU protein (waterLOGSY peaks reversed into negative peaks) [3] | wound healing speed [4] | DAPI staining, nucleus region morphology [5] | effect on growth of Bacillus subtilis (absorbance at 600 nm vs blank control) ([6]; 200 μM) | effect on growth of Bacillus subtilis ([6]; 400 μM) | effect on growth of Bacillus subtilis ([6]; 500 μM) | effect on growth of Bacillus subtilis ([6]; different concentrations (100, 200, 400, 500 μM), 37° C.) | DAPI staining, nucleus region morphology [7] | transmission electron microscope, nucleoid regions [8] | bacterial load at the skin lesion site, two concentrations ([9]; 0.1 μM and 100 μM, 50 μL/time, twice a day, 3 days) | antibacterial ability compared with commercial fusidic acid ([9]; dosage of Belinostat lower than that of fusidic acid) | curative effect compared with fusidic acid ([9]; molar dosages much lower than fusidic acid) | bacterial count in skin lesion site compared with blank control group [9] | transmission electron microscope, cell length and nucleoid regions [10]
1 | O=C(/C=C/c1cccc(S(=O)(=O)Nc2ccccc2)c1)NO [Belinostat, N-hydroxy-3-(3-[(phenylamino)sulfonyl]phenyl)acrylamide] | can bind to the HU protein | could not react with the mutated HU protein | bound to the HU protein | significantly faster | bacterial nucleus region became longer | relatively strong inhibitory effect on bacterial growth | almost completely inhibited | almost completely inhibited | inhibitory effect on growth of Bacillus subtilis | bacterial nucleus region was dispersed | became inconspicuous and showed a loose state | same bactericidal effect | equivalent antibacterial ability | better than that of the fusidic acid | significantly reduced | increased to different degrees, and nucleoid regions were scattered in many places in cytoplasm
2 | CC(=O)O[C@H]1C[C@@]2(C)[C@@H](C[C@@H](O)[C@H]3[C@@]4(C)CC[C@@H](O)[C@@H](C)[C@@H]4CC[C@@]32C)/C1=C(\CCC=C(C)C)C(=O)O [fusidic acid] |  |  |  |  |  |  |  |  |  |  |  |  |  |  | significantly reduced | 
